We go through 2 compounds from ChEMBL document CHEMBL3217669, “Activation of a silent phenazine biosynthetic gene cluster reveals a novel natural product and a new resistance mechanism against phenazines” (Medchemcomm, 2012).

Holding throughout (assay type): functional, organism-based
For one test, the system named is Escherichia coli. The test can be described thus: Antibacterial activity against Escherichia coli K-12 assessed as growth inhibition at 0.5 umol after overnight incubation.
The test system of another test is Bacillus subtilis. In words: Antibacterial activity against Bacillus subtilis ATCC 14893 assessed as growth inhibition at 0.5 umol after overnight incubation.
For another test, the system named is Streptomyces coelicolor. The test can be described thus: Antibacterial activity against Streptomyces coelicolor M512 assessed as growth inhibition up to 0.5 umol after 48 hrs.

The source made the active and inactive calls. The calls are words filed in the database; no cut-off is given here.

Turning to `NC(=O)CC[C@H](NC(=O)c1cccc2nc3ccccc3nc12)C(=O)O`, the “growth inhibition (GI)” value in the test with Escherichia coli, with Bacillus subtilis and with Streptomyces coelicolor was “inactive” in each case.

As to `O=C(O)c1cccc2nc3ccccc3nc12`, the “growth inhibition (GI)” value in the test on Escherichia coli and with Streptomyces coelicolor was “inactive” each time. Moreover, in the test with Bacillus subtilis, the “growth inhibition (GI)” value was “Active”.
